From ChEMBL document CHEMBL1126718, “Potent in vitro and in vivo inhibitors of platelet aggregation based upon the Arg-Gly-Asp-Phe sequence of fibrinogen. A proposal on the nature of the binding interaction between the Arg-guanidine of RGDX mimetics and the platelet GP IIb-IIIa receptor” (J Med Chem, 1993)
Peptide text beside a SMILES is read from it.

Legend:
[1] = species on record: Canis familiaris; assay: In vitro inhibition of ADP-induced platelet aggregation in canine platelet rich plasma (PRP); type: functional; conditions: Canis lupus familiaris
[2] = In vitro inhibition of ADP-induced platelet aggregation in human platelet rich plasma (PRP); type: functional
[3] = species on record: Canis familiaris; assay: In vitro inhibition of ADP-induced platelet aggregation in canine platelet rich plasma (PRP); Inactive; type: functional, Canis lupus familiaris
[4] = In vitro inhibition of ADP-induced platelet aggregation in platelet rich plasma (PRP); type: functional

In the case of N=C(N)c1ccc(CC(=O)CCC(=O)N[C@@H](CC(=O)O)C(=O)N[C@@H](Cc2ccccc2)C(=O)O)cc1, the IC50 [1] is reported as 180 nM.

Compound N=C(N)c1ccc(CCCCC(=O)N[C@@H](CC(=O)O)C(=O)N[C@@H](Cc2ccccc2)C(=O)O)cc1 has an IC50 [2] of 42 nM and an IC50 [1] of 53 nM.

With N=C(N)c1ccc(CCCC(=O)N[C@@H](CC(=O)O)C(=O)N[C@@H](Cc2ccccc2)C(=O)O)cc1 the IC50 [3] was “Not Active”.

In the case of N=C(N)c1ccc(/C=C/CCC(=O)N[C@@H](CC(=O)O)C(=O)N[C@@H](Cc2ccccc2)C(=O)O)cc1, the IC50 [2] is reported as 90 nM and the IC50 [1] is reported as 82 nM.

With N=C(N)c1ccc(C#CCCC(=O)N[C@@H](CC(=O)O)C(=O)N[C@@H](Cc2ccccc2)C(=O)O)cc1 the IC50 [2] was 120 nM and the IC50 [1] was 90 nM.

For N=C(N)c1cccc(/C=C/CCCC(=O)N[C@@H](CC(=O)O)C(=O)N[C@@H](Cc2ccccc2)C(=O)O)c1, the IC50 [2] was 3200 nM and the IC50 [1] was 4300 nM.

In the case of N=C(N)c1cccc(CCCCCC(=O)N[C@@H](CC(=O)O)C(=O)N[C@@H](Cc2ccccc2)C(=O)O)c1, the IC50 [1] is reported as 5800 nM.

Work on N=C(N)NCCC[C@H](N)C(=O)NCC(=O)N[C@@H](CC(=O)O)C(=O)N[C@@H](Cc1ccccc1)C(=O)O (H-RGDF-OH) yielded an IC50 [4] of 90000 nM.
